# Results published in publication PMC4678575 (MedChemComm, 2013).
# Assays:
# [1] = target: first bromodomain of BRD4 (BRD4(1)) (Homo sapiens, UniProt O60885); test: AlphaScreen peptide displacement assay, BRD4; assay type: binding; conditions: for inhibition of BRD4(1), in words: AlphaScreen using isolated bromodomains
# CBP bromodomain = CBP bromodomain (Homo sapiens, UniProt Q92793); test: AlphaScreen peptide displacement assay, CBP; assay type: binding; conditions: for affinity for the CBP bromodomain, in words: AlphaScreen using isolated bromodomains
# Sequence of CBP bromodomain (Q92793 1085-1192 limits assumed): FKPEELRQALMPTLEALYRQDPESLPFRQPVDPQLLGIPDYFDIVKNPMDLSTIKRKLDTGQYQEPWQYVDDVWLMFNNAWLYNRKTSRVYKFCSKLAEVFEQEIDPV
# [2] = Re-examination of stock solutions by LCMS; assay type: physicochemical; conditions: mass loss of 18 amu, likely dehydration to indene 16
# CBP = CBP (Homo sapiens, UniProt Q92793); test: DSF thermal shift, CBP; assay type: binding
# Sequence of CBP (Q92793 1085-1192 limits assumed): as above
smiles,measurement,setting,value
Cc1noc(C)c1-c1ccc2c(c1)C(=O)CC2 [Compound 6],"inhibition of BRD4(1), in words",[1],modest inhibitors
same,"affinity for the CBP bromodomain, in words",CBP bromodomain,no affinity
Cc1noc(C)c1-c1ccc2nc[nH]c2c1 [Compound 8],"affinity/potency for BRD4(1) compared with CBP, in words",[1]; AlphaScreen,comparable affinity for both bromodomains
Cc1noc(C)c1-c1ccc2c(c1)C(O)(c1ccccc1)CC2 (stereo not drawn) [Compound 15],"chemical stability of stock solutions, in words",[2],decomposition of the parent compound
Cc1noc(C)c1-c1ccc2c(c1)C(OCc1ccccc1)CC2 (stereo not drawn) [Compound 9],IC50,CBP bromodomain,> 10 µM
Cc1noc(C)c1-c1ccc2cc[nH]c2c1 [Compound 7],"inhibition of BRD4(1), in words",[1],modest inhibitors
same,"affinity for the CBP bromodomain, in words",CBP bromodomain,no affinity
Cc1noc(C)c1-c1ccc2ncn(Cc3ccc(C#N)cc3)c2c1 [Compound 28a],selectivity for BRD4(1) over CBP,[1]; AlphaScreen BRD4(1) vs CBP,at least 100 fold
same,"stabilization of CBP, in words",CBP,only minimal stabilization
